Reference: patent USRE46943E1, “Radioprotector compounds and methods” (PETER MACCALLUM CANCER INSTITUTE, priority 2010, dated 2018)
pIC50: −log10 of the molar value.

What was measured:
[1] = test system: transformed human keratinocyte cell line (FEP 1811); assay: Clonogenic survival cell culture assay for cytotoxicity; type: cell-based; conditions: Homo sapiens, Keratinocyte, light or radiation study; un-irradiated keratinocytes, one hour drug exposure, colonies counted after eight days; read-out: C50 (concentration of radioprotector that results in 50% clonogenic survival)
Experimental: • i. […] In appropriate cases, tautomers are drawn to illustrate potential hydrogen-bond donating configurations into the minor groove of DNA. • ii. 2-Amino-4-(5′-(4″-methylpiperazin-1″-yl)benzimidazol-2′-yl)aniline was prepared by hydrogenation of 4-(5′-(4″-methylpiperazin-1″-yl)benzimidazol-2′-yl)-2-nitroaniline, using a modification of the method of Kelly et al, Aust. […] 2-Amino-4-(5′-(piperidin-1″-yl)benzimidazol-2′-yl)aniline was prepared by hydrogenation of 2-nitro-4-(5′-(piperidin-1″-yl)benzimidazol-2′-yl)aniline, using a modification of the method of Kelly et al, Aust. […] Ethyl 4-amino-3-nitrobenzenecarboximidate hydrochloride was prepared by reaction of 4-amino-3-nitrobenzonitrile with dry HCl gas in ethanol, using the method of Kelly et al, Aust. […] 5-(4′-Methylpiperazin-1′-yl)-2-nitroaniline was prepared using a modification of the method of Kelly et al, Aust. […] The following chemicals were obtained from the chemical suppliers indicated: 2-furaldehyde (Aldrich), 2-pyridinecarboxaldehyde (Aldrich), 3-fluoropyridine-2-carbaldehyde (Maybridge), 3-trifluoromethylpyridine-2-carboxaldehyde (Apollo Scientific), 6-methyl-2-pyridinecarboxaldehyde (Matrix Scientific), 5-methylpyridine-2-carbonitrile (Apollo Scientific), 4-methyl-2-pyridinecarbonitrile (Aldrich), 4-chloro-2-pyridinecarbonitrile (Aldrich), 4-methoxypicolinonitrile (Combi-Blocks), pyrazinecarbonitrile (Aldrich), 2-quinolinecarbonitrile (Aldrich), 3-isoquinolinecarbonitrile (Aldrich), 1-isoquinolinecarboxylic acid (Aldrich), indazole-3-carboxylic acid (Aldrich), 2-hydroxynicotinic acid (Aldrich), 4-hydroxypiperidine (Aldrich), 1-methylhomopiperazine (Aldrich), 3-hydroxypiperidine (Aldrich), 4-(N-BOC-amino)piperidine (Aldrich), 4-methoxypiperidine (Acros), 4-methyl-3-nitrobenzonitrile (Aldrich), 5-chloro-2-nitroaniline (Aldrich), 2-cyanopyridine (Aldrich), methyl 4-amino-2-methoxybenzoic acid (Aldrich), 4-(trifluoromethyl)-2-pyridinecarbonitrile (Matrix Scientific), cis-2,6-dimethylmorphoiline (Acros), 5-(trifluoromethyl)-2-pyridinecarbonitrile (Advanced Chemical Intermediates) and 5-fluoro-2-pyridinecarbonitrile (Advanced Chemical Intermediates). • ix. […] Melting points were determined using an Electrothermal melting point apparatus, and are uncorrected. […] The abbreviations s for singlet, d for doublet, t for triplet, q for quartet, br for broad and m for muitiplet were used in the assignments of multiplicity. A value approximating the centre of a multiplet is quoted. […] The addition of a few drops of acetic acid to methanol-d4 solutions was used to enhance solubility for the acquisition of ^13C nmr spectra. Mass spectra were recorded on a Micromass Quattro II mass spectrometer and accurate mass analyses were carried out by the School of Chemistry at the University of Melbourne on a Finnigan LTQ-FT model high resolution mass spectrometer. Thin layer chromatography (TLC) was carried out using Merck silica gel 60 F254 aluminium sheets or Merck neutral aluminium oxide 150 F254 sheets. Flash column chromatography was carried out using Ajax silica gel 230-400 mesh. • xi. […] The details are described in detail in Martin et al (4) (the disclosure of which is included herein in its entirety by way of reference), but briefly, mid-log phase monolayer cultures are incubated with various concentrations of the test drugs for one hour, after which the monolayers are washed and dispersed into single cell suspensions using pronase, and finally appropriate numbers of cells are dispensed into Petri dishes. Colonies are counted after eight days incubation. […] The irradiation (with a dose rate of 0.6 Gy per minute) is started 30 minutes after addition of the test drug. After completion of irradiation, incubation of cultures is continued until the total time of exposure to the drug reaches 60 minutes. Cultures are then washed and plated for clonogenic survival as described for the cytotoxicity experiments.

[2] = test system: transformed human keratinocyte cell line (FEP 1811); assay: Clonogenic survival cell culture assay for radioprotective activity (12 Gy 137Cs gamma irradiation); type: cell-based; conditions: 12 Gy; for DMF10 (dose modification factor at a concentration of 10 microM of radioprotector): 10 microM radioprotector; for DMFm (dose modification factor at maximum protection): DMF=Dp/Dc at survival level Sm; for PF (protection factor = Sm/So): survival at maximum protection vs irradiation only
Description: PF is defined as a ratio of survival at maximum protection Sm and survival after irradiation only So: PF=Sm/So. DMF is defined as a ratio of doses that result in survival level of Sm in the presence Dp and the absence Dc of radioprotector: DMF=Dp/Dc. DMF10 is define in a similar way except that instead of Sm a survival at 10 microM of radioprotector is used.
PF (Protection Factor) is defined as a ratio of survival at maximum protection Sm and survival after irradiation only So:PF=Sm/So. DMF (Dose Modification Factor) is defined as a ratio of doses that result in survival level of Sm in the presence (Dp) and the absence (Dc) of radioprotector: DMF=Dp/Dc. DMF10 is defined in a similar way except that instead of Sm a survival at 10 microM of radioprotector is used.
• i. […] In appropriate cases, tautomers are drawn to illustrate potential hydrogen-bond donating configurations into the minor groove of DNA. • ii. 2-Amino-4-(5′-(4″-methylpiperazin-1″-yl)benzimidazol-2′-yl)aniline was prepared by hydrogenation of 4-(5′-(4″-methylpiperazin-1″-yl)benzimidazol-2′-yl)-2-nitroaniline, using a modification of the method of Kelly et al, Aust. […] 2-Amino-4-(5′-(piperidin-1″-yl)benzimidazol-2′-yl)aniline was prepared by hydrogenation of 2-nitro-4-(5′-(piperidin-1″-yl)benzimidazol-2′-yl)aniline, using a modification of the method of Kelly et al, Aust. […] Ethyl 4-amino-3-nitrobenzenecarboximidate hydrochloride was prepared by reaction of 4-amino-3-nitrobenzonitrile with dry HCl gas in ethanol, using the method of Kelly et al, Aust. […] 5-(4′-Methylpiperazin-1′-yl)-2-nitroaniline was prepared using a modification of the method of Kelly et al, Aust. […] The following chemicals were obtained from the chemical suppliers indicated: 2-furaldehyde (Aldrich), 2-pyridinecarboxaldehyde (Aldrich), 3-fluoropyridine-2-carbaldehyde (Maybridge), 3-trifluoromethylpyridine-2-carboxaldehyde (Apollo Scientific), 6-methyl-2-pyridinecarboxaldehyde (Matrix Scientific), 5-methylpyridine-2-carbonitrile (Apollo Scientific), 4-methyl-2-pyridinecarbonitrile (Aldrich), 4-chloro-2-pyridinecarbonitrile (Aldrich), 4-methoxypicolinonitrile (Combi-Blocks), pyrazinecarbonitrile (Aldrich), 2-quinolinecarbonitrile (Aldrich), 3-isoquinolinecarbonitrile (Aldrich), 1-isoquinolinecarboxylic acid (Aldrich), indazole-3-carboxylic acid (Aldrich), 2-hydroxynicotinic acid (Aldrich), 4-hydroxypiperidine (Aldrich), 1-methylhomopiperazine (Aldrich), 3-hydroxypiperidine (Aldrich), 4-(N-BOC-amino)piperidine (Aldrich), 4-methoxypiperidine (Acros), 4-methyl-3-nitrobenzonitrile (Aldrich), 5-chloro-2-nitroaniline (Aldrich), 2-cyanopyridine (Aldrich), methyl 4-amino-2-methoxybenzoic acid (Aldrich), 4-(trifluoromethyl)-2-pyridinecarbonitrile (Matrix Scientific), cis-2,6-dimethylmorphoiline (Acros), 5-(trifluoromethyl)-2-pyridinecarbonitrile (Advanced Chemical Intermediates) and 5-fluoro-2-pyridinecarbonitrile (Advanced Chemical Intermediates). • ix. […] Melting points were determined using an Electrothermal melting point apparatus, and are uncorrected. […] The abbreviations s for singlet, d for doublet, t for triplet, q for quartet, br for broad and m for muitiplet were used in the assignments of multiplicity. A value approximating the centre of a multiplet is quoted. […] The addition of a few drops of acetic acid to methanol-d4 solutions was used to enhance solubility for the acquisition of ^13C nmr spectra. Mass spectra were recorded on a Micromass Quattro II mass spectrometer and accurate mass analyses were carried out by the School of Chemistry at the University of Melbourne on a Finnigan LTQ-FT model high resolution mass spectrometer. Thin layer chromatography (TLC) was carried out using Merck silica gel 60 F254 aluminium sheets or Merck neutral aluminium oxide 150 F254 sheets. Flash column chromatography was carried out using Ajax silica gel 230-400 mesh. • xi.

Structure (SMILES) | pIC50 [1] | DMF10 (dose modification factor at a concentration of 10 microM of radioprotector) [2] | DMFm (dose modification factor at maximum protection) [2] | PF (protection factor = Sm/So) [2] | melting point
CN1CCN(c2ccc3nc(-c4ccc5nc(-c6ccco6)[nH]c5c4)[nH]c3c2)CC1 [Example 1, 2-(5′-(5″-(4′″-Methylpiperazin-1′″-yl)benzimidazol-2″-yl)benzimidazol-2′-yl)furan] | 4.24 | 1.14 | 1.37 | 7.7 | 202 to 224 °C (dec.)
CN1CCN(c2ccc3nc(-c4ccc5nc(-c6ncccc6F)[nH]c5c4)[nH]c3c2)CC1 [Example 3, 3-Fluoro-2-(5′-(5″-(4′″-methylpiperazin-1′″-yl)benzimidazol-2″-yl)benzimidazol-2′-yl)pyridine] | 4.03 | 1.40 | 1.80 | 15.3 | 201 to 214 °C
CN1CCN(c2ccc3nc(-c4ccc5nc(-c6ncccc6C(F)(F)F)[nH]c5c4)[nH]c3c2)CC1 [Example 4, 2-(5′-(5″-(4′″-Methylpiperazin-1′″-yl)benzimidazol-2″-yl)benzimidazol-2′-yl)-3-trifluoromethylpyridine] | 3.72 | 1.41 | 1.99 | 30.5 | 189 to 191 °C
Cc1ccnc(-c2nc3ccc(-c4nc5ccc(N6CCN(C)CC6)cc5[nH]4)cc3[nH]2)c1 [Example 7, 4-Methyl-2-(5′-(5″-(4′″-methylpiperazin-1′″-yl)benzimidazol-2″-yl)benzimidazol-2′-yl)pyridine] | 3.88 | 2.36 | 2.55 | 183.8 | 200 °C (dec.)
CN1CCN(c2ccc3nc(-c4ccc5nc(-c6cc(Cl)ccn6)[nH]c5c4)[nH]c3c2)CC1 [Example 8, 4-Chloro-2-(5′-(5″-(4′″-methylpiperazin-1′″-yl)benzimidazol-2″-yl)benzimidazol-2′-yl)pyridine] | 4.10 | 2.12 | 2.20 | 39.6 | 195 °C (dec.)
CNc1ccnc(-c2nc3ccc(-c4nc5ccc(N6CCN(C)CC6)cc5[nH]4)cc3[nH]2)c1 [Example 9, 4-Methylamino-2-(5′-(5″-(4′″-methylpiperazin-1′″-yl)benzimidazol-2″-yl)benzimidazol-2′-yl)pyridine] | 4.22 | 1.14 | 1.55 | 7.1 | 220 °C (dec.)
CN(C)Nc1ccc2[nH]c(-c3ccc4[nH]c(-c5ccccn5)nc4c3)nc2c1 [Example 46, 2-(5′-(5″-(2′″,2′″-dimethylhydrazinyl)benzimidazol-2″-yl)benzimidazol-2′-yl)pyridine] | 4.13 | 1.29 | 1.71 | 27.9 | –
CN1CCN(c2ccc3nc(-c4ccc5nc(-c6ccc(F)cn6)[nH]c5c4)[nH]c3c2)CC1 [Example 47, 5-fluoro-2-(5′-(5″-(4′″-methylpiperazin-1″-yl)benzimidazol-2″-yl)benzimidazol-2′-yl)pyridine] | 3.27 | 2.20 | 2.46 | 40.0 | –
C[C@@H]1CN(c2ccc3nc(-c4ccc5nc(-c6ccccn6)[nH]c5c4)[nH]c3c2)C[C@H](C)O1 [Example 52, 2-(5′-(5″-(cis-2′″,6′″-dimethylmorpholino)benzimidazol-2″-yl)benzimidazol-2′-yl)pyridine] | 3.87 | 1.40 | 1.75 | 55.9 | –
CN(CCO)c1ccc2[nH]c(-c3ccc4[nH]c(-c5ccccn5)nc4c3)nc2c1 [Example 54, 2-(5′-(5″-(3′″-hydroxyethyl-1′″-methylamino)benzimidazol-2″-yl)benzimidazol-2′-yl)pyridine] | 4.03 | 1.15 | 1.87 | 20.2 | –
